From patent US10130590B2, “Methods of treating cancer with atovaquone-related compounds” (DANA-FARBER CANCER INSTITUTE, INC., priority 2013, dated 2018)

What was measured:
[1] = system: endogenous STAT3 target genes; test: qRT-PCR of endogenous STAT3 target genes; format: cell-based; conditions: U266, INA-6 and HEL cells, 6 hours
Experimental: (§1) Total RNA was reverse transcribed using random hexamers and assayed by qRT-PCR as previously described (see, Grivennikov S I, Greten F R, & Karin M (2010) Immunity, inflammation, and cancer. Cell 140(6):883-899).
Gene expression was analyzed in triplicate, normalized by 18S rRNA, and expressed as mean±SEM. For gene expression microarrays, RNA was isolated by Trizol, purified further on RNeasy columns, and profiled using Affymetrix Human Gene 1.0 ST arrays (Affymetrix). Results were deposited under GEO Accession: GSE46575.
(§2) The mechanism by which atovaquone inhibits STAT3 was investigated. STAT3-luc reporter cells were pre-treated with atovaquone (20 μM) for 1 hr, and then stimulated with IL-6 (10 ng/ml) for 15 minutes, 30 minutes, 1 hours, or 2 hours. Since STAT3 transcriptional activity is critically dependent on tyrosine phosphorylation, Western blotting was performed to see if atovaquone affected STAT3 phosphorylation. […] Next, atovaquone was used to treat U266 (2.5 hours), HEL (6 hours), or INA-6 cells (4 hours). […] In U266 and INA-6 cells, the source of STAT3 activation is JAK-dependent IL-6 signaling, while in HEL cells, STAT3 is activated by mutant JAK2-V617F. Given that atovaquone inhibits constitutive STAT3 activation in cancer cells, it was asked whether atovaquone inhibits expression of endogenous STAT3 target genes in this context.

[2] = system: unfolded protein response (UPR); test: Other UPR branches: XBP1 splicing, ATF6 cleavage, UPR target genes; format: cell-based
Experimental: as §1
In asking how atovaquone induces REDD1, a possible role for ATF4, which regulates REDD1 expression was considered. ATF4 is regulated mainly at the level of translation and is induced upon phosphorylation of eIF2α. […] K562 and AML2 cells, which lack STAT3 activation, were treated with rapamycin for 72 hours. […] For these reasons, it was hypothesized that atovaquone induces eIF2α phosphorylation, with a resulting increase in ATF4 protein and signaling. U266, K562, and SKBR3 cells were treated with atovaquone (20, 20, 25 μM respectively). […] The phospho-eIF2α/ATF4 pathway represents one branch of the UPR, whose other branches consist of ATF6 cleavage and IRE1-mediated XBP1 splicing. […] Thus, atovaquone selectively activates the phospho-eIF2α/ATF4 branch of the UPR. […] Consequently, atovaquone inhibition of STAT3 is not secondary to UPR activation.

[3] = system: STAT3; test: Western blot of STAT3 phosphorylation in reporter and cancer cell lines; format: cell-based, human
Experimental: Western blotting was performed as previously described (Battle T E, Arbiser J, & Frank D A (2005) The natural product honokiol induces caspase dependent apoptosis in B-cell chronic lymphocytic leukemia (B-CLL) cells. Blood 106(2):690-697). Antibodies to phospho-MAPK (9101), total MAPK (9102), phospho-Y705 STAT3 (9131), phospho-S6 (2215), total S6 (2217), phospho-4E-BP1 (9451), total 4E-BP1 (9644), total RSK (9355), phospho-S6K (9234, 85 used at 1:5000), total S6K (2708), phospho-eIF2α (9721, used at 1:1000), total eIF2α (5324), ATF4 (11815, used at 1:1000), PDGFRβ (3169), IGF1Rβ (9750), EGFR (2232), and HER2 (2242) were from Cell Signaling Technology. Phospho-RSK antibody was from R&D (AF889). Antibodies to total STAT3 (sc-482) and gp130 (sc-656, used at 1:1000) were from Santa Cruz Biotechnology. Phospho-S727 STAT3 antibody was described previously (229). REDD1 antibody was from Proteintech (10638-1-AP, used at 1:1000). Antibody recognizing full-length and cleaved ATF6 was from Abcam (ab122897, used at 1:1000). Antibodies to tubulin (T5168) and beta actin (A5316) were from Sigma. All antibodies were used at 1:10000 dilution for western blot unless otherwise noted. For immunoprecipitations, cells were lysed in 500 μl lysis buffer (0.5% NP-40, 150 mM NaCl, 50 mM Tris pH 7.5, with protease and phosphatase inhibitors freshly added at 1:100 [Pierce, PI78443]) on ice for 15 minutes, then centrifuged for 10 minutes at 14,000 RPM and 4° C. The supernatant was transferred to a new tube and incubated with 10 μl JAK2 antibody (Santa Cruz sc-278) or a mix of two TYK2 antibodies, 10 μl of each (Santa Cruz sc-5271 and Cell Signaling Technology 9312). Immunoprecipitation was performed overnight at 4° C. with rotation. The next day, 75 μl of protein A/G beads (Santa Cruz sc-2003) were washed twice in lysis buffer, then incubated with immunoprecipitates overnight as before. The next day, the beads were spun down (1 min. at 7,500 RPM and 4° C.) and washed 3 times with 650 μl lysis buffer for 10 minutes at 4° C. with rotation, then boiled in 50 μl sample buffer+10% β-mercaptoethanol. For Western blot, 20 μl were loaded per lane. For detection of phospho-tyrosine, a mixture of two pan-phospho-tyrosine antibodies (Cell Signaling Technology 9411 and 9416, 1:1000 of each) was used. Antibody to phospho-Y1007/1008 JAK2 was from Cell Signaling 86 Technology (3771, used at 1:1000). Antibody to phospho-Y570 JAK2 was from Millipore (09-241, used at 1:1000). Luminometric Assays Luciferase reporter cell lines were described previously (186). Firefly luciferase values were normalized by concurrent cell viability. Cell viability was measured as ATP-dependent luminescence by Cell Titer Glo (Promega).
as §2
Since atovaquone reduced gp130 expression at the cell surface, it was asked whether this effect was accompanied by reduced total gp130 in the cell. To address this question, a time course of atovaquone treatment was performed and total cellular gp130 was measured by Western blotting in U266 cells treated with atovaquone at 20 μM. […]

SMILES: O=C1C(O)=C([C@H]2CC[C@H](c3ccc(Cl)cc3)CC2)C(=O)c2ccccc21 [atovaquone, trans-2-[4-(4-chlorophenyl)cyclohexyl]-3-hydroxy-1,4-naphthalenedione]
- expression of multiple STAT3 target genes [1]: substantially downregulated
- levels of BiP [2]: no effect on levels of BiP
- ATF6 cleavage ([2]; SKBR3, K562, U266, 25, 20, 20 μM): did not induce
- spliced XBP1 ([2]; U266, K562, SKBR3, 20, 20, 25 μM, 6 hours): did not induce spliced XBP1
- UPR target gene expression ([2]; U266, K562, SKBR3, 6 hours, in contrast to tunicamycin and thapsigargin): did not induce any UPR target genes other than those downstream of ATF4
- STAT3 tyrosine phosphorylation following IL-6 stimulation ([3]; STAT3 reporter cells, 20 μM pre-treatment 1 hr, IL-6 (10 ng/ml)): reduced STAT3 tyrosine phosphorylation
- constitutive STAT3 tyrosine phosphorylation ([3]; U266 (2.5 hours), HEL (6 hours), INA-6 (4 hours)): inhibited constitutive STAT3 tyrosine phosphorylation
- time after which STAT3 phosphorylation was inhibited ([3]; U266, 20 μM, time course): 10 min
- STAT3 serine phosphorylation ([3]; U266, HEL, INA-6 cells): not affected
- inhibition of STAT3 phosphorylation after cycloheximide pre-treatment ([3]; U266, cycloheximide 2 μg/ml 1 hour, atovaquone 15 μM 2.5 hours): did not affect the inhibition of STAT3 phosphorylation
